Reference: paper PMC6478789, “A chemical toolbox for the study of bromodomains and epigenetic signaling” (Nature Communications, 2019)

Experiments:
[1] = target: T1, SND1 (Homo sapiens, UniProt Q7KZF4); experiment: Temperature shift assay (non-BRD reader domains); type: binding; settings: 10µM compound
T1 sequence (Q7KZF4 729-787 limits assumed): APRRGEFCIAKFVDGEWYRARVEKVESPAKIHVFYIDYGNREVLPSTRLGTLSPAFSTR
Experimental: (§1) Temperature shift assays have been described by Fedorov et al.[46]. Recombinant protein domains (bromodomain or kinases) at a concentration of 2 μM in 10 mM HEPES, pH 7.5, and 500 mM NaCl were mixed with 10 μM of chemical probes. Temperature-dependent protein unfolding profiles were measured using a Real-Time PCR Mx3005p machine (Stratagene).
(§2) Wu et al., Supplementary figures and tables 14
(§3) Supplementary Table 3: Selectivity screening data (non-BRD reader domains):
(§4) Temperature shift assay data of BRD probes screened against a diver se panel of methyl-lysine
(§5) reader domains. Compounds were screened a concentration of 10 µM. Shown are temperature

[2] = target: 53BP1 (Homo sapiens, UniProt Q12888); experiment: Temperature shift assay (non-BRD reader domains); type: binding; settings: 10µM compound
Experimental: as §1, §2, §3, §4, §5

[3] = target: EED (Homo sapiens, UniProt O75530); experiment: Temperature shift assay (non-BRD reader domains); type: binding; settings: 10µM compound
Experimental: as §1, §2, §3, §4, §5

[4] = target: T2, UHRF1 (Homo sapiens, UniProt Q96T88); experiment: Temperature shift assay (non-BRD reader domains); type: binding; settings: 10µM compound
T2 sequence (Q96T88 126-285 limits assumed): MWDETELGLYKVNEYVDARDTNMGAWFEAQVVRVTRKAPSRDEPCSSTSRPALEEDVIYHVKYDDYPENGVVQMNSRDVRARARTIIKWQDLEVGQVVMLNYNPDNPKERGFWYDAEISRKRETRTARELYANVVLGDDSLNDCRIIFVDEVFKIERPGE
Experimental: as §1, §2, §3, §4, §5

[5] = target: FXR1 (Homo sapiens, UniProt P51114); experiment: Temperature shift assay (non-BRD reader domains); type: binding; settings: 10µM compound
Experimental: as §1, §2, §3, §4, §5

[6] = target: WDR5 (Homo sapiens, UniProt P61964); experiment: Temperature shift assay (non-BRD reader domains); type: binding; settings: 10µM compound
Experimental: as §1, §2, §3, §4, §5

[7] = test system: RBBP1; experiment: Temperature shift assay (non-BRD reader domains); type: binding; settings: 10µM compound
Experimental: as §1, §2, §3, §4, §5

[8] = target: BRPF3 (Homo sapiens, UniProt Q9ULD4); experiment: Temperature shift assay (non-BRD reader domains); type: binding; settings: 10µM compound
Experimental: as §1, §2, §3, §4, §5

[9] = target: TDRD3 (Homo sapiens, UniProt Q9H7E2); experiment: Temperature shift assay (non-BRD reader domains); type: binding; settings: 10µM compound
Experimental: as §1, §2, §3, §4, §5

[10] = target: T3, SETD8 (Homo sapiens, UniProt Q9NQR1); experiment: Methyl transferase scintillation proximity assay; type: biochemical; settings: average of two measurements, read-out: MTases Inhibition (%)
T3 construct: purchased DiscoverX BROMOscan (bromodomains); SGC in-house methyltransferase panel
T3 sequence (Q9NQR1 1-393): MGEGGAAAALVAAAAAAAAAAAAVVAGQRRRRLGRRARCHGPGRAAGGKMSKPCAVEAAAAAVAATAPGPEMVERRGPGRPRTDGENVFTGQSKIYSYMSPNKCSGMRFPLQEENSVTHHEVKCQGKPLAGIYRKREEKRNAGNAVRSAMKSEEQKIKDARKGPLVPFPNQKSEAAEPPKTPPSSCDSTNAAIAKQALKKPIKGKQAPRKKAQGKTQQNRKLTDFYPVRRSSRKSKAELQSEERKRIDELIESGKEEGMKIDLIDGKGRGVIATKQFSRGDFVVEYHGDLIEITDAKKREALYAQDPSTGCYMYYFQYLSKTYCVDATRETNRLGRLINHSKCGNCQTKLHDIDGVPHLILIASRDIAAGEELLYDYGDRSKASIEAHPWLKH
Method in brief: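 ^3H-SAM + biotinylated substrate, both ~apparent Km per enzyme. Quench: 7.5 M guanidine HCl; dilute in 20 mM Tris pH 8.0; FlashPlate capture 1 h; read CPM. No-compound = 100%, no-enzyme = 0% activity.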

Sequence of EED (O75530 whole entry, species assumed, the tested form may be a part): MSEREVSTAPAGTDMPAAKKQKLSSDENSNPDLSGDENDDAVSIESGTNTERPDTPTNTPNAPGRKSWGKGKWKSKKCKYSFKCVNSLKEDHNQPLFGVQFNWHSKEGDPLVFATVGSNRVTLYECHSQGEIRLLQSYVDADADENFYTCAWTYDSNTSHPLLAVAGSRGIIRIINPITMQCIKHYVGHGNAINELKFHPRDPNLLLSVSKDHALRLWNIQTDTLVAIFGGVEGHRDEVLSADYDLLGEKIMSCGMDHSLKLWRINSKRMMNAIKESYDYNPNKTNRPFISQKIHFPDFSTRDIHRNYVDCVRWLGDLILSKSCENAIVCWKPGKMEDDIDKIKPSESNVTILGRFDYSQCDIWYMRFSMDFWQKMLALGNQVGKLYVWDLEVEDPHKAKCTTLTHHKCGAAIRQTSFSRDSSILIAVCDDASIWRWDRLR
Sequence of TDRD3 (Q9H7E2 555-615 limits assumed, species assumed): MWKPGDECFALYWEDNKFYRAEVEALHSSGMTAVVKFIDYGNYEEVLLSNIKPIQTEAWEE
Sequence of FXR1 (P51114 2-132 limits assumed, species assumed): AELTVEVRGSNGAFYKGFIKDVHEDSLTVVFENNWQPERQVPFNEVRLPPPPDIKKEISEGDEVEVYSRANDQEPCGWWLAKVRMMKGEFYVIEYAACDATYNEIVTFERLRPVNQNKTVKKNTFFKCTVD
Sequence of 53BP1 (Q12888 1484-1603 limits assumed, species assumed): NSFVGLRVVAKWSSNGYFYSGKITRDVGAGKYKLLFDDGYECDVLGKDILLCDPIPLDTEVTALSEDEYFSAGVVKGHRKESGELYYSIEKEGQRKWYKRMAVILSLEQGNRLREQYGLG
Sequence of BRPF3 (Q9ULD4 1076-1159 limits assumed, species assumed): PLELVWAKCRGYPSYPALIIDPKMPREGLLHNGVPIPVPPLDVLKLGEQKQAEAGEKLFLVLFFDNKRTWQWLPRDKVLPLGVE

Tm (C) 10µM, temperature shift [1]	Tm (C) 10µM, temperature shift [2]	Tm (C) 10µM, temperature shift [3]	Tm (C) 10µM, temperature shift [4]	Tm (C) 10µM, temperature shift [5]	Tm (C) 10µM, temperature shift [6]	Tm (C) 10µM, temperature shift [8]	Tm (C) 10µM, temperature shift [9]	inhibition at 10 µM [10]	Compound	Tm (C) 10µM, temperature shift [7]
-0.9 Kelvin	0.0 Kelvin	-0.7 Kelvin	-0.2 Kelvin	0.8 Kelvin	0.4 Kelvin	-0.3 Kelvin	-1.0 Kelvin	0%	Cc1c(NC(=O)c2cc(C(N)=O)nc3cc(F)ccc23)c(C(F)(F)F)nn1Cc1ccc(C#N)cc1 [BAY-876]	-0.3 Kelvin
-1.0 Kelvin	-0.1 Kelvin	-0.7 Kelvin	-0.2 Kelvin	0.3 Kelvin	0.2 Kelvin	-0.3 Kelvin	-0.6 Kelvin	10%	CN1C[C@H](Nc2cnn(C)c(=O)c2Br)C[C@H](c2ccccc2)C1 [GSK4027]	-0.7 Kelvin
-0.5 Kelvin	-0.1 Kelvin	-0.4 Kelvin	-0.2 Kelvin	0.4 Kelvin	0.2 Kelvin	-0.2 Kelvin	-0.6 Kelvin	-7%	CO[C@H]1CNC[C@@H](OCC2CCC(F)(F)CC2)[C@@H]1Nc1ncc(-c2cncc(C)c2)c2cc(C)c(=O)[nH]c12 [GSK8814]	-0.1 Kelvin
-0.5 Kelvin	0.4 Kelvin	-0.3 Kelvin	0.0 Kelvin	0.4 Kelvin	0.2 Kelvin	0.2 Kelvin	-0.7 Kelvin	-6%	CN(C)CCCOc1ccc(-c2cc(NCCCn3cccn3)nc(S(C)(=O)=O)n2)cc1 [TP-238]	-0.4 Kelvin
